Earlier results, collected in patent US20060292651A1, “Protein labelling with oº-alkylguanine-dna alkyltrnsferase” (priority 2002, published 2006).

Molecular target: T1, hAGT (Homo sapiens, UniProt P16455)
T1 sequence (P16455 1-207): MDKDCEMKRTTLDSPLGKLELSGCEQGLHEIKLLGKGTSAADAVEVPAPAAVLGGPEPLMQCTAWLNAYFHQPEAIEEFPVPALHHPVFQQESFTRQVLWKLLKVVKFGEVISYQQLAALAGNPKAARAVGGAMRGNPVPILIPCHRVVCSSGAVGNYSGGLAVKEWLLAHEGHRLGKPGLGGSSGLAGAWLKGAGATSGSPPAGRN
Conditions: reaction with hAGT

second order rate constant: approximately 10^3 sec^−1 M^−1
Compound: Nc1nc(OCc2ccccc2)c2nc[nH]c2n1 [O^6-benzyl-guanine]
